Drawing on paper PMC2776710 (Basic research in cardiology, 2009), this text covers IC50 for 1 compound.

In this assay the target is mitochondrial respiratory complex II (succinate-ubiquinone oxidoreductase) (Rattus norvegicus, UniProt P21913+Q641Z9+Q6PCT8).
mitochondrial respiratory complex II (succinate-ubiquinone oxidoreductase), sequence (P21913 31-282): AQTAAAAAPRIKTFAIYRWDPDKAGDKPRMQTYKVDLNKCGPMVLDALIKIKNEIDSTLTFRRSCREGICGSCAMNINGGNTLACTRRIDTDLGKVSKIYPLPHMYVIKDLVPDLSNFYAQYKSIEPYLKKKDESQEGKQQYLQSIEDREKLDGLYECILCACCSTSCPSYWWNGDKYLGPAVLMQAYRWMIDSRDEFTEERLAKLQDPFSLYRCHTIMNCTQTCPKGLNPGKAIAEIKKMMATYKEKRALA
mitochondrial respiratory complex II (succinate-ubiquinone oxidoreductase), sequence (Q641Z9 30-169): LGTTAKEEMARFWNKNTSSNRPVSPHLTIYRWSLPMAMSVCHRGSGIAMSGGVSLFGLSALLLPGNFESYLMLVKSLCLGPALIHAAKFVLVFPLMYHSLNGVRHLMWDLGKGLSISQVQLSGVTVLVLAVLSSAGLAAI
mitochondrial respiratory complex II (succinate-ubiquinone oxidoreductase), sequence (Q6PCT8 57-159): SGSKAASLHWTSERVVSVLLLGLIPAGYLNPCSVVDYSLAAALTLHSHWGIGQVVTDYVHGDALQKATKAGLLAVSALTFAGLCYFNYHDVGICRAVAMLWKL
mitochondrial respiratory complex II (succinate-ubiquinone oxidoreductase), sequence (Q920L2 35-656 partner): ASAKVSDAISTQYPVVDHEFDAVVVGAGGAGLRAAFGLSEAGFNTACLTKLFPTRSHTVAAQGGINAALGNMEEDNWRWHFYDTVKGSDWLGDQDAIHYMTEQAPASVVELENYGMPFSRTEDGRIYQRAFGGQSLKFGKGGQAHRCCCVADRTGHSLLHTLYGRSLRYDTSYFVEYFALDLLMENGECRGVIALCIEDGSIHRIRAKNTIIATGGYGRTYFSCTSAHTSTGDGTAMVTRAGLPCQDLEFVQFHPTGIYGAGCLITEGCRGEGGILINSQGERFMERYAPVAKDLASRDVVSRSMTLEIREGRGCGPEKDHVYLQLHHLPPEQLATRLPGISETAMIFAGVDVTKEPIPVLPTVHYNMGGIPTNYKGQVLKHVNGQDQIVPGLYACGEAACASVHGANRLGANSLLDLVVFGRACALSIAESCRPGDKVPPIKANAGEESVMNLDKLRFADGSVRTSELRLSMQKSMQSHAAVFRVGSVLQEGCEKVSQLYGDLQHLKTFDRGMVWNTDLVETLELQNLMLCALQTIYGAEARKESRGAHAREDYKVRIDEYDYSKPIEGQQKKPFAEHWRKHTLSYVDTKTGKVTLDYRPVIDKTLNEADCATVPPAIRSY

Take `COc1[nH]c(=O)c(C(=O)[C@@H](C)C[C@H](C)[C@@H](Cl)CCl)c(O)c1OC` [AA5, atpenin A5]: the IC50 (usually the midpoint of a concentration-inhibition curve) is 8.3 nM. That is a single-digit nanomolar value.
